Measurements from PubChem BioAssay AID1259407 (Chemical Carcinogenesis Research Information System (CCRIS), 2018).
Activity calls are given as the source filed them. The rule behind the calls is not given here.

Tested on: CCRIS mutagenicity, Ames/micronucleus/aberration tests
Test: CCRIS mutagenicity studies
[1] = Test System: AMES SALMONELLA TYPHIMURIUM, Strain/Indicator: TA98, Metabolic Activation: NONE, Method: STANDARD PLATE
[2] = Test System: AMES SALMONELLA TYPHIMURIUM, Strain/Indicator: TA100, Metabolic Activation: NONE, Method: STANDARD PLATE
[3] = Test System: AMES SALMONELLA TYPHIMURIUM, Strain/Indicator: TA1535, Metabolic Activation: NONE, Method: STANDARD PLATE
[4] = Test System: AMES SALMONELLA TYPHIMURIUM, Strain/Indicator: TA1537, Metabolic Activation: NONE, Method: STANDARD PLATE

In the case of CN(C)N=Nc1ccc(Br)cc1, the mutagenic call (Test System: AMES SALMONELLA TYPHIMURIUM, Strain/Indicator: TA92, Metabolic Activation: MOUSE, LIVER, S-9, POLYCHLORINATED BIPHENYLS, Method: PREINCUBATION) is reported as “inactive; negative”, the mutagenic call (Test System: AMES SALMONELLA TYPHIMURIUM, Strain/Indicator: TA92, Metabolic Activation: MOUSE, LIVER, S-9, POLYCHLORINATED BIPHENYLS, Method: STANDARD PLATE) is reported as “inactive; negative” and the mutagenic call (Test System: AMES SALMONELLA TYPHIMURIUM, Strain/Indicator: TA92, Metabolic Activation: NONE, Method: STANDARD PLATE) is reported as “inactive; negative”. For the same compound, the mutagenic call (Test System: AMES SALMONELLA TYPHIMURIUM, Strain/Indicator: TA97, Metabolic Activation: MOUSE, LIVER, S-9, POLYCHLORINATED BIPHENYLS, Method: PREINCUBATION) was “inactive; negative”, the mutagenic call (Test System: AMES SALMONELLA TYPHIMURIUM, Strain/Indicator: TA97, Metabolic Activation: MOUSE, LIVER, S-9, POLYCHLORINATED BIPHENYLS, Method: STANDARD PLATE) was “inactive; negative” and the mutagenic call (Test System: AMES SALMONELLA TYPHIMURIUM, Strain/Indicator: TA97, Metabolic Activation: NONE, Method: STANDARD PLATE) was “inactive; negative”. For the same compound, the mutagenic call (Test System: AMES SALMONELLA TYPHIMURIUM, Strain/Indicator: TA98, Metabolic Activation: MOUSE, LIVER, S-9, POLYCHLORINATED BIPHENYLS, Method: PREINCUBATION) was “active; positive”, the mutagenic call (Test System: AMES SALMONELLA TYPHIMURIUM, Strain/Indicator: TA98, Metabolic Activation: MOUSE, LIVER, S-9, POLYCHLORINATED BIPHENYLS, Method: STANDARD PLATE) was “inactive; negative” and the mutagenic call [1] was “inactive; negative”. The mutagenic call (Test System: AMES SALMONELLA TYPHIMURIUM, Strain/Indicator: TA100, Metabolic Activation: MOUSE, LIVER, S-9, POLYCHLORINATED BIPHENYLS, Method: PREINCUBATION) was “inactive; negative”, the mutagenic call (Test System: AMES SALMONELLA TYPHIMURIUM, Strain/Indicator: TA100, Metabolic Activation: MOUSE, LIVER, S-9, POLYCHLORINATED BIPHENYLS, Method: STANDARD PLATE) was “inactive; negative” and the mutagenic call [2] was “inactive; negative”. The mutagenic call (Test System: AMES SALMONELLA TYPHIMURIUM, Strain/Indicator: TA1535, Metabolic Activation: MOUSE, LIVER, S-9, POLYCHLORINATED BIPHENYLS, Method: PREINCUBATION) was “active; positive”, the mutagenic call (Test System: AMES SALMONELLA TYPHIMURIUM, Strain/Indicator: TA1535, Metabolic Activation: MOUSE, LIVER, S-9, POLYCHLORINATED BIPHENYLS, Method: STANDARD PLATE) was “inactive; negative” and the mutagenic call [3] was “inactive; negative”. For the same compound, the mutagenic call (Test System: AMES SALMONELLA TYPHIMURIUM, Strain/Indicator: TA1537, Metabolic Activation: MOUSE, LIVER, S-9, POLYCHLORINATED BIPHENYLS, Method: PREINCUBATION) was “active; positive”, the mutagenic call (Test System: AMES SALMONELLA TYPHIMURIUM, Strain/Indicator: TA1537, Metabolic Activation: MOUSE, LIVER, S-9, POLYCHLORINATED BIPHENYLS, Method: STANDARD PLATE) was “active; positive” and the mutagenic call [4] was “active; positive”. The mutagenic call (Test System: AMES SALMONELLA TYPHIMURIUM, Strain/Indicator: TA1538, Metabolic Activation: MOUSE, LIVER, S-9, POLYCHLORINATED BIPHENYLS, Method: PREINCUBATION) was “inactive; negative”, the mutagenic call (Test System: AMES SALMONELLA TYPHIMURIUM, Strain/Indicator: TA1538, Metabolic Activation: MOUSE, LIVER, S-9, POLYCHLORINATED BIPHENYLS, Method: STANDARD PLATE) was “active; positive” and the mutagenic call (Test System: AMES SALMONELLA TYPHIMURIUM, Strain/Indicator: TA1538, Metabolic Activation: NONE, Method: STANDARD PLATE) was “inactive; negative”.

In the case of Cc1ccc(N=Cc2cccc3cccnc23)c(C(=O)O)c1, the mutagenic call [1] is reported as “inactive; negative”, the mutagenic call (Test System: AMES SALMONELLA TYPHIMURIUM, Strain/Indicator: TA98, Metabolic Activation: RAT, LIVER, S-9, AROCLOR 1254, Method: STANDARD PLATE) is reported as “inactive; negative” and the mutagenic call [2] is reported as “inactive; negative”. For the same compound, the mutagenic call (Test System: AMES SALMONELLA TYPHIMURIUM, Strain/Indicator: TA100, Metabolic Activation: RAT, LIVER, S-9, AROCLOR 1254, Method: STANDARD PLATE) was “inactive; negative”, the mutagenic call [3] was “inactive; negative” and the mutagenic call (Test System: AMES SALMONELLA TYPHIMURIUM, Strain/Indicator: TA1535, Metabolic Activation: RAT, LIVER, S-9, AROCLOR 1254, Method: STANDARD PLATE) was “inactive; negative”. For the same compound, the mutagenic call [4] was “inactive; negative” and the mutagenic call (Test System: AMES SALMONELLA TYPHIMURIUM, Strain/Indicator: TA1537, Metabolic Activation: RAT, LIVER, S-9, AROCLOR 1254, Method: STANDARD PLATE) was “inactive; negative”.

With C[C@]12CCc3c(ccc4cc(O)ccc34)[C@@H]1CCC2=O the mutagenic call (Test System: UDS RAT HEPATOCYTES, Strain/Indicator: THY INCORP (18-20 HR), Metabolic Activation: NONE, Method: LIQUID SCINTILLATION COUNTING) was “inactive; negative”.

For Nc1cccc2c(=O)[nH][nH]c(=O)c12, the mutagenic call (Test System: AMES SALMONELLA TYPHIMURIUM, Strain/Indicator: TA97, Metabolic Activation: HAMSTER, LIVER, S-9, AROCLOR 1254 (10 OR 30%), Method: PREINCUBATION) was “inactive; negative”, the mutagenic call (Test System: AMES SALMONELLA TYPHIMURIUM, Strain/Indicator: TA97, Metabolic Activation: NONE, Method: PREINCUBATION) was “inactive; negative” and the mutagenic call (Test System: AMES SALMONELLA TYPHIMURIUM, Strain/Indicator: TA97, Metabolic Activation: RAT, LIVER, S-9, AROCLOR 1254 (10 OR 30%), Method: PREINCUBATION) was “inactive; negative”. For the same compound, the mutagenic call (Test System: AMES SALMONELLA TYPHIMURIUM, Strain/Indicator: TA98, Metabolic Activation: HAMSTER, LIVER, S-9, AROCLOR 1254 (10 OR 30%), Method: PREINCUBATION) was “inactive; negative”, the mutagenic call (Test System: AMES SALMONELLA TYPHIMURIUM, Strain/Indicator: TA98, Metabolic Activation: NONE, Method: PREINCUBATION) was “inactive; negative” and the mutagenic call (Test System: AMES SALMONELLA TYPHIMURIUM, Strain/Indicator: TA98, Metabolic Activation: RAT, LIVER, S-9, AROCLOR 1254 (10 OR 30%), Method: PREINCUBATION) was “inactive; negative”. The mutagenic call (Test System: AMES SALMONELLA TYPHIMURIUM, Strain/Indicator: TA100, Metabolic Activation: HAMSTER, LIVER, S-9, AROCLOR 1254 (10 OR 30%), Method: PREINCUBATION) was “inactive; negative”, the mutagenic call (Test System: AMES SALMONELLA TYPHIMURIUM, Strain/Indicator: TA100, Metabolic Activation: NONE, Method: PREINCUBATION) was “inactive; negative” and the mutagenic call (Test System: AMES SALMONELLA TYPHIMURIUM, Strain/Indicator: TA100, Metabolic Activation: RAT, LIVER, S-9, AROCLOR 1254 (10 OR 30%), Method: PREINCUBATION) was “inactive; negative”. For the same compound, the mutagenic call (Test System: AMES SALMONELLA TYPHIMURIUM, Strain/Indicator: TA1535, Metabolic Activation: HAMSTER, LIVER, S-9, AROCLOR 1254 (10 OR 30%), Method: PREINCUBATION) was “inactive; negative”, the mutagenic call (Test System: AMES SALMONELLA TYPHIMURIUM, Strain/Indicator: TA1535, Metabolic Activation: NONE, Method: PREINCUBATION) was “inactive; negative” and the mutagenic call (Test System: AMES SALMONELLA TYPHIMURIUM, Strain/Indicator: TA1535, Metabolic Activation: RAT, LIVER, S-9, AROCLOR 1254 (10 OR 30%), Method: PREINCUBATION) was “inactive; negative”. The mutagenic call (Test System: AMES SALMONELLA TYPHIMURIUM, Strain/Indicator: TA1537, Metabolic Activation: HAMSTER, LIVER, S-9, AROCLOR 1254 (10 OR 30%), Method: PREINCUBATION) was “inactive; negative”, the mutagenic call (Test System: AMES SALMONELLA TYPHIMURIUM, Strain/Indicator: TA1537, Metabolic Activation: NONE, Method: PREINCUBATION) was “inactive; negative” and the mutagenic call (Test System: AMES SALMONELLA TYPHIMURIUM, Strain/Indicator: TA1537, Metabolic Activation: RAT, LIVER, S-9, AROCLOR 1254 (10 OR 30%), Method: PREINCUBATION) was “inactive; negative”.
